# Active and inactive are the calls of the source. The calls are words filed in the database; no cut-off is given here.
# What was measured:
# Assay type in all cases: functional, cell-based
# HL-60 [1] = test: Cytotoxicity against human HL-60 cells assessed as reduction in cell viability incubated for 48 hrs by CCK-8 assay; conditions: HL-60, 48 h
# KG-1 [2] = test: Cytotoxicity against human KG-1 cells assessed as reduction in cell viability incubated for 48 hrs by CCK-8 assay; conditions: KG-1, 48 h
# KG-1 [3] = test: Induction of apoptosis in human KG-1 cells assessed as increase in PARP cleavage incubated for 48 hrs by Western blot analysis; conditions: dose 10-30 µM
# HL-60 [4] = test: Induction of apoptosis in human HL-60 cells assessed as decrease in Bcl2 expression incubated for 48 hrs by Western blot analysis; conditions: dose 10-30 µM
# KG-1 [5] = test: Induction of apoptosis in human KG-1 cells assessed as caspase 3 activation incubated for 48 hrs by Western blot analysis; conditions: dose 10-30 µM
# HL-60 [6] = test: Induction of apoptosis in human HL-60 cells assessed as caspase 9 activation incubated for 48 hrs by Western blot analysis; conditions: dose 10-30 µM
# HL-60 [7] = test: Induction of apoptosis in human HL-60 cells assessed as increase in Bax expression at 10 to 30 uM incubated for 48 hrs by Western blot analysis; conditions: dose 10-30 µM
# KG-1 [8] = test: Induction of apoptosis in human KG-1 cells assessed as caspase 9 activation incubated for 48 hrs by Western blot analysis; conditions: dose 10-30 µM
# HL-60 [9] = test: Induction of apoptosis in human HL-60 cells assessed as increase in Cyt-c expression at 10 to 30 uM incubated for 48 hrs by Western blot analysis; conditions: dose 10-30 µM
# HL-60 [10] = test: Induction of apoptosis in human HL-60 cells assessed as increase in PARP cleavage incubated for 48 hrs by Western blot analysis; conditions: dose 10-30 µM
# HL-60 [11] = test: Induction of apoptosis in human HL-60 cells assessed as caspase 3 activation incubated for 48 hrs by Western blot analysis; conditions: dose 10-30 µM
SMILES,IC50 (HL-60 [1]),IC50 (KG-1 [2]),further results
ClCCl [METHYLENE CHLORIDE],116 µg/mL,149 µg/mL,
COC(=O)[C@]1(C)[C@@H]2[C@@H](O)C(=O)[C@H]3[C@@H](C)/C(=C/C(=O)O)CC[C@@H]3[C@@]2(C)CC[C@@H]1O,28.7 µM,> 50 µM,
COC(=O)/C=C1\CC[C@H]2[C@@H](C(=O)[C@H](O)[C@@H]3[C@]2(C)CC[C@H](O)[C@]3(C)C(=O)OC)[C@H]1C,25.7 µM,> 50 µM,
COC(=O)[C@]1(C)[C@@H]2C(=O)[C@H](OC(C)=O)[C@H]3[C@@H](C)/C(=C/C(=O)O)CC[C@@H]3[C@@]2(C)CC[C@@H]1O,15.2 µM,18.6 µM,Activity (KG-1 [3]): Dose-dependent effect; Activity (HL-60 [4]): Dose-dependent effect; Activity (KG-1 [5]): Dose-dependent effect; Activity (HL-60 [6]): Dose-dependent effect; Activity (HL-60 [7]): Active; Activity (KG-1 [8]): Dose-dependent effect; Activity (HL-60 [9]): Active; Activity (HL-60 [10]): Dose-dependent effect; Activity (HL-60 [11]): Dose-dependent effect
CCCCCC [HEXANE],> 300 µg/mL,,
COC(=O)CC1=CC[C@H]2[C@@H](C(=O)[C@H](O)[C@@H]3[C@]2(C)CCC[C@]3(C)C(=O)OC)[C@H]1C,28.5 µM,42.2 µM,
CCOC(C)=O [ETHYL ACETATE],216 µg/mL,> 300 µg/mL,
COC(=O)[C@]1(C)[C@@H]2C(=O)[C@H](O)[C@H]3[C@@H](C)/C(=C/C(=O)O)CC[C@@H]3[C@@]2(C)CC[C@@H]1O,24.3 µM,35.7 µM,
CC[C@@]1(O)C(=O)OCc2c1cc1n(c2=O)Cc2cc3ccccc3nc2-1 [CAMPTOTHECIN],1.7 µM,1.6 µM,

# From ChEMBL document CHEMBL4673274, “Cytotoxic components from the leaves of Erythrophleum fordii induce human acute leukemia cell apoptosis through caspase 3 activation and PARP cleavage” (Bioorg Med Chem Lett, 2021)
